Results from patent publication US12589169B2, “Compound and MRI contrast agent containing same” (KYUNGPOOK NATIONAL UNIVERSITY INDUSTRY-ACADEMIC COOPERATION …, priority 2020, dated 2026).

How the values were obtained:
[1] = magnetic relaxation rates (MRI contrast effect); type: physicochemical; settings: magnetic relaxation rate; field strength not stated for Table 1
Description: In order to examine the MRI contrast effects of the compounds (Gd-suc, Gd-glu) and commercially available MRI contrast agents according to Examples of the present invention, the magnetic relaxation rates and lipophilicity were analyzed, and the results are shown in Table 1 below.
The magnetic relaxation rate (mM^−ls^−1) is a parameter indicating contrast efficiency per unit concentration, and in the case of a T1 contrast agent, the r2/r1 ratio is known to have a value of 0.5 to 1.5.

[2] = test system: Balb/C mice; experiment: in vivo MRI contrast effect (abdominal T1 weighted images); settings: 0.1 mmol/kg, 4.7 T, FIG. 14
Description: The liver-specific T1 contrast effect of the compounds (Gd-suc, Gd-glu) according to embodiments of the present invention and Primovist, a commercially available liver contrast agent, was evaluated in small animals (Balb/C mice, male, 5 w, 25 g, 0.1 mmol/kg) and confirmed through abdominal T1 weighted images (Bruker, 4.7 T), and the results are shown in FIGS. 12 to 15.

[3] = test system: AML12 cell line; experiment: in vitro cell-viability test (CCK method); type: cell-based; settings: AML12 normal hepatocytes, 24 hours; FIG. 16
Description: In order to confirm the presence or absence of cytotoxicity in normal hepatocytes, Gd-suc (i.e., a compound according to an embodiment of the present invention) and Primovist and Multihance (i.e., commercially available liver contrast agents) were treated on the AML12 cell line at various concentrations, and cell viability after 24 hours was analyzed by a known CCK method, and the results are shown in FIG. 16.

r1 [1] [mM^−ls^−1] | r2 [1] [mM^−ls^−1] | SMILES | contrast enhancing effect in the gall bladder [2] | cytotoxicity [3]
4.12 ± 0.028 | 4.60 ± 0.025 | O=C([O-])CN1CCN(CC(=O)[O-])CCN([C@H](CO)[C@H](O)CO)CCN(CC(=O)[O-])CC1.[Gd+3] (racemic) [Gadovist] |  | 
4.19 ± 0.014 | 4.75 ± 0.016 | CNC[C@H](O)[C@@H](O)[C@H](O)[C@H](O)CO.O=C([O-])CN1CCN(CC(=O)[O-])CCN(CC(=O)O)CCN(CC(=O)[O-])CC1.[Gd+3] [Dotarem, Gd-DOTA] |  | 
3.57 ± 0.007 | 4.95 ± 0.18 | CNC[C@H](O)[C@@H](O)[C@H](O)[C@H](O)CO.CNC[C@H](O)[C@@H](O)[C@H](O)[C@H](O)CO.O=C([O-])CN(CCN(CC(=O)[O-])CC(=O)O)CCN(CC(=O)[O-])CC(=O)O.[Gd+3] [Magnevist] |  | 
5.09 ± 0.015 | 6.79 ± 0.38 | CNC[C@H](O)[C@@H](O)[C@H](O)[C@H](O)CO.CNC[C@H](O)[C@@H](O)[C@H](O)[C@H](O)CO.O=C([O-])CN(CCN(CC(=O)[O-])CC(=O)O)CCN(CC(=O)O)C(COCc1ccccc1)C(=O)[O-].[Gd+3] (stereo not shown) [Multihance] |  | significant cytotoxicity
3.58 ± 0.014 | 4.46 ± 0.024 | CNC(=O)CN(CCN(CCN(CC(=O)[O-])CC(=O)NC)CC(=O)[O-])CC(=O)[O-].[Gd+3] [Omniscan] |  | 
6.51 ± 0.040 | 7.31 ± 0.42 | CCOc1ccc(CC(CN(CCN(CC(=O)[O-])CC(=O)[O-])CC(=O)[O-])N(CC(=O)[O-])CC(=O)[O-])cc1.[Gd+3].[Na+].[Na+] (stereo not shown) [Primovist] |  | significant cytotoxicity

SMILES | r1 [1] [mM^−ls^−1] | r2 [1] [mM^−ls^−1] | contrast enhancing effect in the gall bladder [2] | cytotoxicity [3]
CCOc1ccc(CN2CCN(CC(=O)[O-])CCN(C(CCC(=O)[O-])C(=O)[O-])CCN(CC(=O)[O-])CC2)cc1.[Gd+3] (stereo not shown) [Gd-glu] | 8.41 ± 0.084 | 9.92 ± 0.081 | exhibited a contrast enhancing effect in the gall bladder | 
CC(O)CN1CCN(CC(=O)[O-])CCN(CC(=O)[O-])CCN(CC(=O)[O-])CC1.[Gd+3] (stereo not shown) [Prohance] | 3.58 ± 0.017 | 4.58 ± 0.071 |  | 
